The record followed here is patent US20230042653A1, “COMBINATIONS” (Recurium IP Holdings, LLC, priority 2019, published 2023).

The assay deals with MCF-7 xenograft tumor. Kind of assay: MCF-7 xenograft tumor model, combination study. Type of assay: in vivo. The settings on record: single agent, FIG. 3.

As for `C[C@@H]1Cc2c([nH]c3ccccc23)[C@@H](c2c(F)cc(/C=C/C(=O)O)cc2F)N1C12CC(C1)C2` [Compound (A)], the TGI (10 mg/kg) is on record as 128.3%.
As for `C=CCn1c(=O)c2cnc(Nc3ccc(N4CCN(C)CC4)cc3)nc2n1-c1cccc(C(C)(C)O)n1` [Compound 1], the TGI (dose not printed for the single agent) worked out at 122.8%.
